Results taken from US20140296354A1, “SYNTHESIS OF PEPTOID-BASED SMALL MOLECULAR GELATORS FROM MULTIPLE COMPONENT REACTIONS” (OLD DOMINION UNIVERSITY RESEARCH FOUNDATION, priority 2013, published 2014).

Key:
[1] = Gelation test in solvents at room temperature; assay type: physicochemical; design: key to Gelation test result: I, insoluble; P, precipitating; S, soluble at ~20 mg/mL; G, gel at room temperature; number is minimum gelation concentration; conditions: for Gelation test result / minimum gelation concentration: room temperature; for MGC in DMSO:H2O (1:2): Table 2
Protocol: Gelation tests were performed by adding incremental amounts of compounds to a solvent or solvent system at room temperature and observing the results (i.e., gel formation, solubility of compounds, insolubility of compounds, or formation of a precipitate). […] The term “precipation” means that the compound dissolves upon heating and sonicating, however, it crashes out of solution when the heat is removed.
After the compounds were synthesized, they were screened for gelation properties. […] For the compounds with new chiral centers, they formed gels in aqueous environment preferentially.

[2] = Gel melting temperatures; assay type: physicochemical; conditions: gel in DMSO:H2O (1:2) at its minimum gelation concentration
Protocol: Melting points were measured for compounds that were gelators in the DMSO:H2O (1:2) solvent system. In general, a compound was dissolved in heated solvent in a small vial at its minimum gelation concentration and transferred into a tube (e.g., an NMR tube) while the mixture was still warm. The tube was sonicated and cooled until a stable gel formed. The tube was immersed in an oil bath and the temperature of the solid-to-liquid phase transition was monitored using a thermometer as the oil bath temperature was changed. Gel melting temperatures are presented in […]

[3] = Optical micrographs of gels (morphology); assay type: physicochemical; conditions: for morphology of the gel: optical micrographs, FIG. 3
From the text: Solvent for 1(a-d) is DMSO:H2O (1:2); solvent for 1(e-f) is EtOH:H2O (1:2).
The EtOH/H2O gel has shown more uniform fibrous structures with an average diameter of 0.5 μm and over 300 μm in length (FIG. 3e, f).

Row | Structure (SMILES) | gelation efficiency (in words) [1] | Gelation test result ([1]; DMSO:H2O (1:1)) | minimum gelation concentration ([1]; DMSO:H2O (1:1)) [mg/mL] | Gelation test result ([1]; DMSO:H2O (1:2)) | minimum gelation concentration ([1]; DMSO:H2O (1:2)) [mg/mL] | MGC in DMSO:H2O (1:2) ([1]; DMSO:H2O (1:2)) [mg/mL] | Gelation test result ([1]; EtOH) | Gelation test result ([1]; EtOH:H2O (1:1)) | minimum gelation concentration ([1]; EtOH:H2O (1:1)) [mg/mL] | Gelation test result ([1]; EtOH:H2O (1:2)) | minimum gelation concentration ([1]; EtOH:H2O (1:2)) [mg/mL] | Gelation test result ([1]; H2O) | Gelation test result ([1]; Hexane) | T1, temperature at which gel begins to melt [2] [°C] | T2, temperature at which gel is approximately half melted [2] [°C] | T3, temperature at which gel is fully melted [2] [°C] | morphology of the gel [3] | melting point [°C] | other results
1 | CCOC(=O)CNC(=O)CN(Cc1ccc(OC)cc1)C(=O)c1ccc(Br)cc1 [Compound 21, Ethyl 2-(2-(N-(4-methoxybenzyl)-4-bromobenzamido)acetamido)acetate] | most efficient gelator identified in this study | G | 2.5 | G | 2.0 | 2.0 | G | G | 5.0 | G | 2.8 | S (S, soluble at ~20 mg/mL) | I | 70 | 75 | 81 | very long and uniform fibrous assemblies | 123 to 125 | minimum gelation concentration ([1]; EtOH): 20.0 mg/mL; average diameter of fibrous structures ([3]; EtOH/H2O gel): 0.5 μm; length of fibrous structures ([3]; EtOH/H2O gel): over 300 μm
2 | C#CCCC(=O)N(CC(=O)NC1CCCCC1)Cc1ccccc1 [Compound 15, N-benzyl-N-(2-(cyclohexylamino)-2-oxoethyl)pent-4-ynamide] | – | G | 20.0 | G | 20.0 | 20.0 | P | P | – | G | 20.0 | S (S, soluble at ~20 mg/mL) | P^(b) | 95 | 100 | 110 | – | 138 to 140 | –
3 | COc1ccc(CN(CC(=O)NC2CCCCC2)C(=O)c2ccc(Br)cc2)cc1 [Compound 20, N-(4-methoxybenzyl)-4-bromo-N-(2-(cyclohexylamino)-2-oxoethyl)benzamide] | – | G | 5.0 | G | 6.6 | 6.6 | P | G | 10.0 | P | – | P | P | 91 | 110 | 120 | – | 174 to 176 | –
4 | CCOC(=O)CNC(=O)CN(Cc1ccc(OC)cc1)C(=O)c1ccccc1 [Compound 23, Ethyl 2-(2-(N-(4-methoxybenzyl)benzamido)acetamido)acetate] | – | P | – | G | 20.0 | 20.0 | S (S, soluble at ~20 mg/mL) | P | – | P | – | S (S, soluble at ~20 mg/mL) | I | 50 | 52 | 58 | – | 94 to 96 | –

Further lines, with some results ahead:

Row | gelation efficiency (in words) [1] | Gelation test result ([1]; DMSO:H2O (1:1)) | minimum gelation concentration ([1]; DMSO:H2O (1:1)) [mg/mL] | Gelation test result ([1]; DMSO:H2O (1:2)) | minimum gelation concentration ([1]; DMSO:H2O (1:2)) [mg/mL] | MGC in DMSO:H2O (1:2) ([1]; DMSO:H2O (1:2)) [mg/mL] | Gelation test result ([1]; EtOH) | Gelation test result ([1]; EtOH:H2O (1:1)) | minimum gelation concentration ([1]; EtOH:H2O (1:1)) [mg/mL] | Gelation test result ([1]; EtOH:H2O (1:2)) | minimum gelation concentration ([1]; EtOH:H2O (1:2)) [mg/mL] | Gelation test result ([1]; H2O) | Gelation test result ([1]; Hexane) | T1, temperature at which gel begins to melt [2] [°C] | T2, temperature at which gel is approximately half melted [2] [°C] | T3, temperature at which gel is fully melted [2] [°C] | morphology of the gel [3] | melting point [°C] | Structure (SMILES) | other results
5 | – | P | – | P | – | – | G | P | – | G | 20.0 | I | P | – | – | – | – | 261 to 263 | COC1OC2COC(c3ccccc3)OC2C(O)C1N(CC(=O)NC1CCCCC1)C(=O)c1ccccc1 (centres unmarked) [Compound 24, N-(2-(cyclohexylamino)-2-oxoethyl)-N-(8-hydroxy-6-methoxy-2-phenyl-hexahydropyrano[3,2-d][1,3]dioxin-7-yl)benzamide] | minimum gelation concentration ([1]; EtOH): 20.0 mg/mL
6 | – | G | 20.0 | P | – | – | S (S, soluble at ~20 mg/mL) | P | – | P | – | P | S^(c) (S, soluble at ~20 mg/mL) | – | – | – | – | 140 to 142 | C[C@H](c1ccccc1)N(CC(=O)NC1CCCCC1)C(=O)c1ccc(Br)cc1 [Compound 19, (R)-4-bromo-N-(2-(cyclohexylamino)-2-oxoethyl)-N-(1-phenylethyl)benzamide] | –
7 | – | S (S, soluble at ~20 mg/mL) | – | P | – | – | S (S, soluble at ~20 mg/mL) | S (S, soluble at ~20 mg/mL) | – | P | – | P | I^(a) | – | – | – | – | 122 to 124 | CC(=O)N(CC(=O)NC1CCCCC1)Cc1ccccc1 [Compound 14, N-benzyl-N-(2-(cyclohexylamino)-2-oxoethyl)acetamide] | –
8 | not a very efficient gelator | G | 20.0 | G | 10.0 | 10.0 | P | G | 20.0 | P | – | P | I | 91 | 95 | 110 | rod or sheet like feature | 190 to 192 | O=C(CN(Cc1ccccc1)C(=O)c1ccc([N+](=O)[O-])cc1)NC1CCCCC1 [Compound 18, N-benzyl-N-(2-(cyclohexylamino)-2-oxoethyl)-4-nitrobenzamide] | concentration at which gel formed ([1]; DMSO aqueous mixture): 2 wt %
9 | more efficient gelator | G | 10.0 | G | 6.6 | 6.6 | I | G | 20.0 | G | 10.0 | P | I | 110 | 118 | 128 | thinner fibrous assembly | 207 to 209 | CCOC(=O)CNC(=O)CN(C(=O)c1ccc(Br)cc1)C1C(OC)OC2COC(c3ccccc3)OC2C1O (centres unmarked) [Compound 26, Ethyl-2-(2-(4-bromo-N-(8-hydroxy-6-methoxy-2-phenyl-hexahydropyrano[3,2-d][1,3]dioxin-7-yl)benzamido)acetamido)acetate] | concentration at which gel formed ([1]; DMSO/H2O (1:2)): 0.66 wt %
10 | – | G | 10.0 | G | 5.0 | 5.0 | S (S, soluble at ~20 mg/mL) | G | 20.0 | P | – | P | I | 78 | 80 | 90 | – | 168 to 170 | O=C(CN(Cc1ccccc1)C(=O)c1ccc(Br)cc1)NC1CCCCC1 [Compound 17, N-benzyl-4-bromo-N-(2-(cyclohexylamino)-2-oxoethyl)benzamide] | –
